Test system: ABCA-1 gene
Test: compounds tested and found to elevate cellular expression of the ABCA-1 gene (Examples 1-6; test not named)
Type: cell-based
Procedure: Activity testing is conducted as described in those patents and patent applications referenced above, and in the Examples below, and by methods apparent to one skilled in the art.

| SMILES | cellular expression of the ABCA-1 gene |
| --- | --- |
| CCOC(=O)c1ccc(NC(=O)Nc2ccccc2)cc1 [ethyl 4-[(phenylamino)carbonylamino]benzoate] | elevate cellular expression of the ABCA-1 gene |
| CCOC(=O)C1=C(NCCc2ccccc2)CCN(C(=O)c2ccc(Cl)cc2Cl)C1 [ethyl 1-[(2,4-dichlorophenyl)carbonyl]-4-[(2-phenylethyl)amino]-1,2,5,6-tetrahydropyridine-3-carboxylate] | elevate cellular expression of the ABCA-1 gene |
| CC(C)c1ccc(NC(=O)N(Cc2ccco2)C(C)c2nc3ccccc3c(=O)n2-c2ccc(Cl)cc2)cc1 (stereo not drawn) [N-{[3-(4-chlorophenyl)-4-oxo(3-hydroquinazolin-2-yl)]ethyl}-N-(2-furylmethyl){[4-(methylethyl)phenyl]amino}carboxamide] | elevate cellular expression of the ABCA-1 gene |
| O=C(Nc1cccc(Cl)c1)Nc1ccccc1F [N-(2-fluorophenyl)[(3-chlorophenyl)amino]carboxamide] | elevate cellular expression of the ABCA-1 gene |
| COc1cccc(C(=O)NC2=NC(=O)CS2)c1 [(3-methoxyphenyl)-N-(4-oxo(1,3-thiazolin-2-yl))carboxamide] | elevate cellular expression of the ABCA-1 gene |
| O=C(NCCc1ccccn1)c1ccccc1 [phenyl-N-(2-(2-pyridyl)ethyl)carboxamide] | elevate cellular expression of the ABCA-1 gene |
| O=C(Nc1cccc(Cl)c1)Nc1ccc2c(c1)OCCO2 [(2H,3H-benzo[e]1,4-dioxin-6-ylamino)-N-(3-chlorophenyl)lcarboxamide] | elevate cellular expression of the ABCA-1 gene |
| CCc1c(C(=O)N2CCN(C(=O)c3ccc(-c4ccccc4)cc3)C(C)C2)cnn1-c1nc(-c2ccc(OC)cc2)cs1 (stereo not drawn) [[4-(biphenyl-4-carbonyl)-3-methyl-piperazin-1-yl]-{5-ethyl-1-[4-(4-methoxy-phenyl)-thiazol-2-yl]-1H-pyrazol-4-yl}-methanone] | elevate cellular expression of the ABCA-1 gene |
| Cc1onc(-c2ccccc2Cl)c1C(=O)Nc1ncc(-c2ccccc2)s1 [[3-(2-chlorophenyl)-5-methylisoxazol-4-yl]-N-(5-phenyl(1,3-thiazol-2-yl))carboxamide] | elevate cellular expression of the ABCA-1 gene |
| CCOC(=O)CC(=O)CSc1nnc(NC(=O)c2ccc(Cl)cc2)s1 [ethyl 4-{5-[(4-chlorophenyl)carbonylamino](1,3,4-thiadiazol-2-ylthio)}-3-oxobutanoate] | elevate cellular expression of the ABCA-1 gene |
| Cc1ccc(-c2csc(-n3ncc(C(=O)NCCC(C)C)c3C(C)C)n2)cc1 [5-isopropyl-1-(4-p-tolyl-thiazol-2-yl)-1H-pyrazole-4-carboxylic acid (3-methyl-butyl)-amide] | elevate cellular expression of the ABCA-1 gene |
| CCCc1c(C(=O)Nc2nc3c(Cl)cccc3s2)cnn1-c1ccc(Cl)cc1 [N-(4-chlorobenzothiazol-2-yl)[1-(4-chlorophenyl)-5-propylpyrazol-4-yl]carboxamide] | elevate cellular expression of the ABCA-1 gene |
| N#Cc1ccc(C(=O)NC2=NCCS2)cc1 [(4-cyanophenyl)-N-(1,3-thiazolin-2-yl)carboxamide] | elevate cellular expression of the ABCA-1 gene |
| O=C(Nc1ncc(-c2ccc(F)cc2)s1)c1ccco1 [N-[5-(4-fluorophenyl)(1,3-thiazol-2-yl)]-2-furylcarboxamide] | elevate cellular expression of the ABCA-1 gene |
| O=C(NC1=NC(C(=O)O)CS1)c1ccccc1C(F)(F)F (stereo not drawn) [2-[(2-trifluoromethylphenyl)carbonylamino]-1,3-thiazoline-4-carboxylic acid] | elevate cellular expression of the ABCA-1 gene |
| O=C(Nc1ncc(-c2ccccc2)s1)c1ccccn1 [N-(5-phenyl(1,3-thiazol-2-yl))-2-pyridylcarboxamide] | elevate cellular expression of the ABCA-1 gene |
| Cc1ccc(-n2ncc(N(C)n3cccc3)c(Cl)c2=O)cc1 [4-chloro-2-(4-methylphenyl)-5-(methylpyrrolylamino)-2-hydropyridazin-3-one] | elevate cellular expression of the ABCA-1 gene |
| COc1ccc(C(=O)O/N=C(/N)c2cccnc2)cc1 [(1E)-2-amino-1-aza-2-(3-pyridyl)vinyl 4-methoxybenzoate] | elevate cellular expression of the ABCA-1 gene |
| O=C(Nc1cccc(Cl)c1)Nc1ccc2c(c1)CCC2 [[(3-chlorophenyl)amino]-N-indan-5-ylcarboxamide] | elevate cellular expression of the ABCA-1 gene |
| O=C(Nc1nc2c(Cl)cccc2s1)c1cc2ccccc2s1 [benzo[b]thiophen-2-yl-N-(4-chlorobenzothiazol-2-yl)carboxamide] | elevate cellular expression of the ABCA-1 gene |
| Cc1cc(C)c2ccc(NC(=O)c3ccc(Cl)cc3)nc2n1 [N-(5,7-dimethylpyridino[3,2-e]pyridin-2-yl)(4-chlorophenyl)carboxamide] | elevate cellular expression of the ABCA-1 gene |
| O=C(Nc1ccc(F)cc1F)c1cc2ccccc2s1 [benzo[b]thiophen-2-yl-N-(2,4-difluorophenyl)carboxamide] | elevate cellular expression of the ABCA-1 gene |
| COc1cc(C(=O)NC2=NCCS2)cc(OC)c1OC [(3,4,5-trimethoxyphenyl)-N-(1,3-thiazolin-2-yl)carboxamide] | elevate cellular expression of the ABCA-1 gene |
| CCCOc1nc(-c2ccc(Cl)cc2Cl)n(S(=O)(=O)Cc2ccccc2)n1 [5-(2,4-dichlorophenyl)-1-[benzylsulfonyl]-3-propoxy-1,2,4-triazole] | elevate cellular expression of the ABCA-1 gene |
| COC(=O)c1ccc(C(=O)NC2=NCCS2)cc1 [methyl 4-(N-(1,3-thiazolin-2-yl)carbamoyl)benzoate] | elevate cellular expression of the ABCA-1 gene |
| O=C(NC1=NCCS1)c1ccc(C(F)(F)F)cc1 [N-(1,3-thiazolin-2-yl)[4-(trifluoromethyl)phenyl]carboxamide] | elevate cellular expression of the ABCA-1 gene |
| COc1ccccc1NC(=O)N(CCc1ccccc1)C(C)c1nc2ccccc2c(=O)n1-c1ccc(Br)cc1 (stereo not drawn) [1-{1-[3-(4-bromophenyl)-4-oxo-3,4-dihydro-quinazolin-2-yl]-ethyl}-3-(2-methoxy-phenyl-1-phenethylurea] | elevate cellular expression of the ABCA-1 gene |
| O=C(Nc1nc2ccccc2c(=O)o1)c1ccc(Cl)c(Cl)c1 [(3,4-dichlorophenyl)-N-(4-oxobenzo[d]1,3-oxazin-2-yl)carboxamide] | elevate cellular expression of the ABCA-1 gene |
| COc1ccc(-c2nc3cc(/N=C/c4cccc([N+](=O)[O-])c4)ccc3o2)cc1 [1-{5-[(1E)-1-aza-2-(3-nitrophenyl)vinyl]benzoxazol-2-yl}-4-methoxybenzene] | elevate cellular expression of the ABCA-1 gene |
| O=C(Nc1nc2ccccc2s1)c1ccccn1 [N-benzothiazol-2-yl-2-pyridylcarboxamide] | elevate cellular expression of the ABCA-1 gene |

Reference: patent US6900219B2, “ABCA-1 elevating compounds” (CV Therapeutics, Inc., priority 2002, dated 2005)
